Data taken from patent US20240343694A1, “PYRIMIDINE DERIVATIVE, METHOD FOR PREPARING SAME, AND PHARMACEUTICAL COMPOSITION FOR PREVENTING OR TREATING CANCER COMPRISING SAME AS ACTIVE INGREDIENT” (KOREA RESERARCH INSTITUTE OF CHEMICAL TECHNOLOGY, priority 2021, published 2024).

How the values were obtained:
EGFR del19 = EGFR del19 (Homo sapiens (Human), UniProt P00533, DEL746-750); assay: HTRF inhibitory activity against EGFR mutant enzyme (EGFR del19); assay type: biochemical; details: recombinant enzyme, 37° C. for 2 hours
Sequence of EGFR del19 (P00533 other isoform, or with tags, fused parts or gaps del 1-668/del 746-750 limits assumed): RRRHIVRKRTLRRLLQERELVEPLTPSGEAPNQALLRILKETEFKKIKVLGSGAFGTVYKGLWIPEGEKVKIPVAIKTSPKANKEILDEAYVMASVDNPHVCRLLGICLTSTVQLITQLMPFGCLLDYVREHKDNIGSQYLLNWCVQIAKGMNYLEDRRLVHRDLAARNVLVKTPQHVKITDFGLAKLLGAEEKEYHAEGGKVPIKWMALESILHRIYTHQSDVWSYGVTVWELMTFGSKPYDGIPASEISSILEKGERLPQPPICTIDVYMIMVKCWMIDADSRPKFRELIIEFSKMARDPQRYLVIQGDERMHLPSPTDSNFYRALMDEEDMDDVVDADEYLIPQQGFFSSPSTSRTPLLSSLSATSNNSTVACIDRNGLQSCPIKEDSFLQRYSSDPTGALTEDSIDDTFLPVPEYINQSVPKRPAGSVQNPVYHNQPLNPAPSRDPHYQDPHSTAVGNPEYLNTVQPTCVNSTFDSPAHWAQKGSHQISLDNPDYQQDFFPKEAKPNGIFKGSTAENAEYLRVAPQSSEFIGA
Outline: (§1)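 IC50 was derived from 7 concentrations by HTRF: Eu-anti-pTyr and streptavidin-XL665 for 1 h at room temperature, with the 615/665 nm ratio read. The kinase reaction ran 2 h at 37 °C in Tris pH 7.5 buffer with ATP (stated 50 mM) and biotinylated peptide (0.5 mM). Enzyme was preincubated with compound before substrate was added.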

EGFR A763_Y764insFHEA = EGFR A763_Y764insFHEA (Homo sapiens (Human), UniProt P00533, INS763FHEA); assay: HTRF inhibitory activity against EGFR mutant enzyme (EGFR A763_Y764insFHEA); assay type: biochemical; details: recombinant enzyme, 37° C. for 2 hours
Sequence of EGFR A763_Y764insFHEA (P00533 other isoform, or with tags, fused parts or gaps del 1-694/ins FHEA behind 763 limits assumed): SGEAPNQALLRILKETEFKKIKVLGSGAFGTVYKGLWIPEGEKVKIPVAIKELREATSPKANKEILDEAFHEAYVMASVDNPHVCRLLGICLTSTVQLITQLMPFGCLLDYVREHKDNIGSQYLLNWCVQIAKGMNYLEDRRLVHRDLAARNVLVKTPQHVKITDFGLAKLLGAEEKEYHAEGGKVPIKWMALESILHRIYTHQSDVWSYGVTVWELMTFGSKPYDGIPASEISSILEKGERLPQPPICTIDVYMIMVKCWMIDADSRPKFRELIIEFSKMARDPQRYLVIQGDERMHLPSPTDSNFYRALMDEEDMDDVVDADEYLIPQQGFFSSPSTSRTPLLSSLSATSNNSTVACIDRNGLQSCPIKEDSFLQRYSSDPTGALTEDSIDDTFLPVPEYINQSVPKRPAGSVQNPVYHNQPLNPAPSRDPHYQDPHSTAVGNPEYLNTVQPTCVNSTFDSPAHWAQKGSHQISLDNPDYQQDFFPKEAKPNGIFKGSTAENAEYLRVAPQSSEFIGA
Outline: as §1

HER2 A775_G776insYVMA = HER2 A775_G776insYVMA (Homo sapiens (Human), UniProt P04626, INS775YVMA); assay: HTRF inhibitory activity against HER2 mutant enzyme; assay type: biochemical; details: recombinant enzyme, 37° C. for 2 hours
Sequence of HER2 A775_G776insYVMA (P04626 other isoform, or with tags, fused parts or gaps del 1-675/ins YVMA behind 775 limits assumed): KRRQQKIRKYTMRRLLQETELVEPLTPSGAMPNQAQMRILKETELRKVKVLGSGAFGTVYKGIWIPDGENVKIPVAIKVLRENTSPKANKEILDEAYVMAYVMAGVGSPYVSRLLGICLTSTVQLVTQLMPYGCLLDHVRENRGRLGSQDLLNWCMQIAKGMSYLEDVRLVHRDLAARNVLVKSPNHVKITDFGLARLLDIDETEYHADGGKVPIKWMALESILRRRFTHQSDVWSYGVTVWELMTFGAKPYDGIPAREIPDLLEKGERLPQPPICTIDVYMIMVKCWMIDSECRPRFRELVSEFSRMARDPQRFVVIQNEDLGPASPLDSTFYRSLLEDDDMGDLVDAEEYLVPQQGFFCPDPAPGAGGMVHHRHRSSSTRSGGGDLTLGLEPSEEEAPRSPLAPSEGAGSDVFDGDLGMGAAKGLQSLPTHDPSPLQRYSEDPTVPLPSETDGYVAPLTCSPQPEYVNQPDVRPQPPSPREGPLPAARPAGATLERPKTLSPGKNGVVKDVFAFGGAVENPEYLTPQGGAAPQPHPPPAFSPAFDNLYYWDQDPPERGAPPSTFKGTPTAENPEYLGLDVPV
Outline: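 Recombinant HER2 A775_G776insYVMA preincubated with compound, then […] and biotinylated peptide ([…]) added; 2 h at 37 °C in Tris-HCl pH 7.5 buffer with MgCl2, DTT. HTRF detection (Eu anti-phosphotyrosine/streptavidin-XL665); IC50 from 7 concentrations.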

[1] = system: Ba/F3 EGFR D770_N771insSVD; assay: Growth inhibition of Ba/F3 EGFR mutant cells (CellTiter-Glo); assay type: cell-based; details: Ba/F3 EGFR-D770-N771ins_SVD, 72 hours
Outline: (§2)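 Ba/F3 cells expressing either EGFR insertion mutant were seeded at 1,000 cells/well and dosed 24 h later at eight concentrations from 0 to 10 μM. After 72 h, viability was read by CellTiter-Glo ATP signal. IC50 (μM) was fitted from the eight-point curves.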

[2] = system: Ba/F3 EGFR V769_D770insASV; assay: as above; assay type: cell-based; details: 72 hours
Outline: as §2

[3] = system: Ba/F3 HER2 A775_G776insYVMA; assay: Growth inhibition of Ba/F3 HER2 mutant cells (CellTiter-Glo); assay type: cell-based; details: Mus musculus, BaF3, 72 hours
Outline: (§3)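 Ba/F3 cells carrying HER2 A775_G776insYVMA or G776delinsVC were seeded at 1,000 cells/well and dosed 24 h later at 0.01-10 μM (8 concentrations including 0). After 72 h, viability was read as cellular ATP by CellTiter-Glo luminescence, and IC50 values were calculated from the 8-point curves.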

Ba/F3 HER2 G776delinsVC = assay: as above; assay type: cell-based; details: Mus musculus, BaF3, 72 hours
Outline: as §3

| IC50 (EGFR del19) | IC50 (EGFR A763_Y764insFHEA) | IC50 (HER2 A775_G776insYVMA) | IC50 [1] | IC50 [2] | IC50 [3] | IC50 (Ba/F3 HER2 G776delinsVC) | SMILES |
| --- | --- | --- | --- | --- | --- | --- | --- |
| < 1 nM | 1 nM | 9 nM | 30 to 50 nM | 30 to 50 nM | 50 to 100 nM | < 10 nM | C=CC(=O)Nc1cc(Nc2ncc(Cl)c(Nc3cccc(CC)c3N(C)S(C)(=O)=O)n2)c(OC)cc1N(C)CCN(C)C [Example 41, N-(5-((5-chloro-4-((3-ethyl-2-(N-methylmethylsulfonamido)phenyl)amino)pyrimidin-2-yl)amino)-2-((2-(dimethylamino)ethyl)(methyl)amino)-4-methoxyphenyl)acrylamide] |
| < 1 nM | < 1 nM | 8 nM | 50 to 100 nM | < 10 nM | 30 to 50 nM | < 10 nM | C=CC(=O)Nc1cc(Nc2ncc(Cl)c(Nc3ccc(C)c(C)c3N(C)S(C)(=O)=O)n2)c(OC)cc1N(C)CCN(C)C [Example 43, N-(5-((5-chloro-4-((3,4-dimethyl-2-(N-methylmethylsulfonamido)phenyl)amino)pyrimidin-2-yl)amino)-2-((2-(dimethylamino)ethyl)(methyl)amino)-4-methoxyphenyl)acrylamide] |
| < 1 nM | < 1 nM | 8 nM | < 10 nM | < 10 nM | < 10 nM | < 10 nM | C=CC(=O)Nc1cc(Nc2ncc(Cl)c(Nc3ccc(C)cc3N(C)S(C)(=O)=O)n2)c(OC)cc1N(C)CCN(C)C [Example 45, N-(5-((5-chloro-4-((4-methyl-2-(N-methylmethylsulfonamido)phenyl)amino)pyrimidin-2-yl)amino)-2-((2-(dimethylamino)ethyl)(methyl)amino)-4-methoxyphenyl)acrylamide] |
| < 1 nM | < 1 nM | 2 nM | < 10 nM | 30 to 50 nM | < 10 nM | 30 to 50 nM | C=CC(=O)Nc1cc(Nc2ncc(Cl)c(Nc3ccc(C)cc3NS(C)(=O)=O)n2)c(OC)cc1N(C)CCN(C)C [Example 46, N-(5-((5-chloro-4-((4-methyl-2-(methylsulfonamido)phenyl)amino)pyrimidin-2-yl)amino)-2-((2-(dimethylamino)ethyl)(methyl)amino)-4-methoxyphenyl)acrylamide] |
| < 1 nM | < 1 nM | 6 nM | < 10 nM | < 10 nM | < 10 nM | < 10 nM | C=CC(=O)Nc1cc(Nc2ncc(Cl)c(Nc3cccc4c3N(S(C)(=O)=O)CCC4)n2)c(OC)cc1N(C)CCN(C)C [Example 47, N-(5-((5-chloro-4-((1-(methylsulfonyl)-1,2,3,4-tetrahydroquinolin-8-yl)amino)pyrimidin-2-yl)amino)-2-((2-(dimethylamino)ethyl)(methyl)amino)-4-methoxyphenyl)acrylamide] |
| 3 nM | 7 nM | 20 nM | 50 to 100 nM | 50 to 100 nM | 50 to 100 nM | < 10 nM | C=CC(=O)Nc1cc(Nc2ncc(Cl)c(Nc3cccc4c3N(S(C)(=O)=O)CCC4)n2)c(OC)cc1N(C)CCNC [Example 48, N-(5-((5-chloro-4-((1-(methylsulfonyl)-1,2,3,4-tetrahydroquinolin-8-yl)amino)pyrimidin-2-yl)amino)-4-methoxy-2-(methyl(2-(methylamino)ethyl)amino)phenyl)acrylamide] |
| 0.1 nM | 10 nM | 60 nM | 50 to 100 nM | 50 to 100 nM | 50 to 100 nM | < 10 nM | C=CC(=O)Nc1cc(Nc2ncc(Cl)c(Nc3cccc4c3N(S(C)(=O)=O)CCC4)n2)c(OC)cc1N1CCC(N(C)C)CC1 [Example 49, N-(5-((5-chloro-4-((1-(methylsulfonyl)-1,2,3,4-tetrahydroquinolin-8-yl)amino)pyrimidin-2-yl)amino)-2-(4-(dimethylamino)piperidin-1-yl)-4-methoxyphenyl)acrylamide] |
| < 1 nM | 3 nM | 60 nM | 50 to 100 nM | 50 to 100 nM | 50 to 100 nM | < 10 nM | C=CC(=O)Nc1cc(Nc2ncc(Cl)c(Nc3cccc4c3N(S(C)(=O)=O)CCC4)n2)c(OC)cc1N1CCC(N2CCN(C)CC2)CC1 [Example 50, N-(5-((5-chloro-4-((1-(methylsulfonyl)-1,2,3,4-tetrahydroquinolin-8-yl)amino)pyrimidin-2-yl)amino)-4-methoxy-2-(4-(4-methylpiperazin-1-yl)piperidin-1-yl)phenyl)acrylamide] |
| < 1 nM | < 1 nM | < 1 nM | < 10 nM | < 10 nM | < 10 nM | < 10 nM | C=CC(=O)Nc1cc(Nc2ncc(Cl)c(Nc3cccc4c3N(S(C)(=O)=O)CC4)n2)c(OC)cc1N(C)CCN(C)C [Example 55, N-(5-((5-chloro-4-((1-(methylsulfonyl)indolin-7-yl)amino)pyrimidin-2-yl)amino)-2-((2-(dimethylamino)ethyl)(methyl)amino)-4-methoxyphenyl)acrylamide] |
| < 1 nM | < 1 nM | < 1 nM | < 10 nM | < 10 nM | < 10 nM | < 10 nM | C=CC(=O)Nc1cc(Nc2ncc(Cl)c(Nc3cccc4c3N(S(=O)(=O)CC)CC4)n2)c(OC)cc1N(C)CCN(C)C [Example 56, N-(5-((5-chloro-4-((1-(ethylsulfonyl)indolin-7-yl)amino)pyrimidin-2-yl)amino)-2-((2-(dimethylamino)ethyl)(methyl)amino)-4-methoxyphenyl)acrylamide] |
| < 1 nM | < 1 nM | < 1 nM | 50 to 100 nM | 50 to 100 nM | 50 to 100 nM | 50 to 100 nM | C=CC(=O)Nc1cc(Nc2ncc(Cl)c(Nc3cccc4c3N(S(C)(=O)=O)CC4)n2)c(OC)cc1N(C)CCNC [Example 57, N-(5-((5-chloro-4-((1-(methylsulfonyl)indolin-7-yl)amino)pyrimidin-2-yl)amino)-4-methoxy-2-(methyl(2-(methylamino)ethyl)amino)phenyl)acrylamide] |
| < 1 nM | 10 nM | 90 nM | 50 to 100 nM | 50 to 100 nM | 50 to 100 nM | < 10 nM | C=CC(=O)Nc1cc(Nc2ncc(Cl)c(Nc3cccc4c3N(S(C)(=O)=O)CC4)n2)c(OC)cc1N1CCC(N(C)C)CC1 [Example 58, N-(5-((5-chloro-4-((1-(methylsulfonyl)indolin-7-yl)amino)pyrimidin-2-yl)amino)-2-(4-(dimethylamino)piperidin-1-yl)-4-methoxyphenyl)acrylamide] |
| < 1 nM | < 1 nM | 20 nM | 50 to 100 nM | 50 to 100 nM | 50 to 100 nM | 50 to 100 nM | C=CC(=O)Nc1cc(Nc2ncc(Cl)c(Nc3cccc4c3N(S(C)(=O)=O)CC4)n2)c(OC)cc1N1CCC(N2CCN(C)CC2)CC1 [Example 59, N-(5-((5-chloro-4-((1-(methylsulfonyl)indolin-7-yl)amino)pyrimidin-2-yl)amino)-4-methoxy-2-(4-(4-methylpiperazin-1-yl)piperidin-1-yl)phenyl)acrylamide] |
